Assay [1] concerns the target T1, IKZF1 ZNF2_ZNF3 Q1F degron-tagged CD19 CAR (Homo sapiens, UniProt Q13422, Q146F).
T1 construct: ZNF2_ZNF3 Q1F degron (GERPFFCNQCGASFTQKGNLLRHIKLHSGEKPFKCHLCNYACRRRDALTGHLRTHS); fused on or other part: anti-CD19 scFv, CD28 transmembrane domain, 4-1BB costimulatory domain, CD3 zeta signaling domain (the CAR that carries the degron), and Nluc
Put plainly: Degradation of Q1F degron-tagged CD19 CAR in Jurkat cells (flow cytometry of CAR levels). Format: cell-based. The text has this:
Q1F degron-targeting compounds were screened in Jurkat cells engineered to express a IKZF1 ZNF2_ZNF3 Q1F. The cell line was generated with lentiviral vectors containing CD19 CARs tagged with IKZF1 ZNF2_ZNF3 QIF Nluc, which were transduced into Jurkat cells. The CD19 CAR comprised an anti-CD19 scFv, a CD28 transmembrane domain, a 4-1BB costimulatory domain, a CD3ζ signaling domain, and a ZNF2_ZNF3 Q1F degron (GERPFFCNQCGASFTQKGNLLRHIKLHSGEKPFKCHLCNYACRRRDALTGHLRTHS; SEQ ID NO: 1; Q1F substitution underlined). Transduced cells were treated with a titration of each small molecule or no drug and then incubated at 37° C. for 18 hours. Cells were washed and stained with appropriate staining reagent to measure CAR levels. The cells were incubated at 4° C. in the staining reagents for 20 mins and then washed 3 times before being read on the flow cytometer. CAR levels were normalized to cells that had not been treated with drug. EC50 and Ymin values were calculated using the resulting titration curve. This identified small molecules that potently degraded the Q1F degron-tagged CARs (Table 1).
(§1) To determine the EC50 value of a compound for the degradation of a given substrate (concentration of compound that achieves half the maximum degradation observed), a four-parameter logistic model (sigmoidal dose-response model) (FIT=(A+{(B−A)/1+[(C/x)D]})) where C is the inflection point (EC50), D is the […], and A and B are the low and high limits of the fit, respectively) was used. All substrate degradation curves were processed and evaluated using ActivityBase (IDBS), a data analysis software package. Ymax is the % protein degraded (Ymin=100−Ymax and is minimum percent protein remaining).
(In general: In flow cytometry, cells or beads pass a laser one at a time.)

The target of the next assay is T2, Helios (Homo sapiens, UniProt Q9UKS7).
T2 construct: endogenous in cells; host or cells: Jurkat cells, CRISPR/Cas9 knock-in of HiBit at the IKZF2 locus
Put plainly: Helios degradation in Jurkat/Helios/HiBit cells (Nano-Glo luminescence). The class given is cell-based. The settings on record: 18 hr, read-out: Helios Jurkat Hibit IC50. As to the method: For Helios, a stable Jurkat cell line was engineered using CRISPR/Cas9 to insert an in-frame HiBit tag into the carboxy-terminal reading frame of the IKZF2 gene. The sequence of human Helios is shown below:
Test compounds were transferred to 1536 well plates using an acoustic dispenser, and Jurkat/Helios/HiBit cells in DMEM/10% FCS were plated at 10,000 cells/well in a final volume of 5 μL. Cells were incubated at 37 C, 95% RH for 18 hr. Luciferase activity was measured by adding 2 μL/well of Nano-Glo reagent (Promega), incubating at RT for 30 min, and reading luminescence on a microtiter plate reader.
as §1

The mark [2] stands for this setting: Jurkat cells expressing CD19 CAR tagged with IKZF1 ZNF2_ZNF3 Q1F; 18 hours at 37° C.; CAR levels normalized to untreated cells; read-out: Q1F Jurkat IC50.
Setting [3] is: Ymax is the % protein degraded; Jurkat cells expressing Q1F degron-tagged CD19 CAR; 18 hours; read-out: Q1F Jurkat-YMax.
Where [4] appears, read: Jurkat, 18 h, read-out: Q1F Jurkat-YMax.

Results on 18 compounds are retold here after patent US20240327381A1, “Compounds and Compositions for Selective Degradation of Engineered Proteins” (Celgene Corporation, priority 2023, published 2024).

Molecules are shown by their SMILES. Like-named read-outs stand apart in the source and are kept apart here.

T2 sequence (Q9UKS7 whole entry): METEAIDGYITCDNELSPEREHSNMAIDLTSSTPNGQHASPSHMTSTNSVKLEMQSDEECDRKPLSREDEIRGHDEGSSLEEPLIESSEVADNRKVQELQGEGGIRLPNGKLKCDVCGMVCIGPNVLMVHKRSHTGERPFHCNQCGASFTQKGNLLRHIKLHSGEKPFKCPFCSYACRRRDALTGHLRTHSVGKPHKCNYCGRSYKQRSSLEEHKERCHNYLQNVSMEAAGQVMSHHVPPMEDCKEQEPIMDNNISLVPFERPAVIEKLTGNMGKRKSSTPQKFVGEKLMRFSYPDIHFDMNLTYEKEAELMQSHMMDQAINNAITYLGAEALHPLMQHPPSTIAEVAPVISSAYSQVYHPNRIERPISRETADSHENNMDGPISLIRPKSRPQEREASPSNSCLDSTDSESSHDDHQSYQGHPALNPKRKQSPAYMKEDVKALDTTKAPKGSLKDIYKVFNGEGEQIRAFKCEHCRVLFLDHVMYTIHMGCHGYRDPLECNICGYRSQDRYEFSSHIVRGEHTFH
T2 sequence (Q96SW2 whole entry, further chain): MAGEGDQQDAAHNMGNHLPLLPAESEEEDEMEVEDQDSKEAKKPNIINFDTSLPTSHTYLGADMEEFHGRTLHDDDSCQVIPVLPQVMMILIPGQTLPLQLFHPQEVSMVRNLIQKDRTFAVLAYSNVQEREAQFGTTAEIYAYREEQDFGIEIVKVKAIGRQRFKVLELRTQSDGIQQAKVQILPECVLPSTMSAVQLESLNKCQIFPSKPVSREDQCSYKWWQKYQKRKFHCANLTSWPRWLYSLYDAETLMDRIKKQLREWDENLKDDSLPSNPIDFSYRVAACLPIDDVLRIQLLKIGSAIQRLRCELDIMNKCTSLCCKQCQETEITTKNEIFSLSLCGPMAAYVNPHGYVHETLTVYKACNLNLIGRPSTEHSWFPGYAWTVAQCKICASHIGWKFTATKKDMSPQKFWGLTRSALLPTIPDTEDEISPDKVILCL
T2 sequence (Q16531 whole entry partner): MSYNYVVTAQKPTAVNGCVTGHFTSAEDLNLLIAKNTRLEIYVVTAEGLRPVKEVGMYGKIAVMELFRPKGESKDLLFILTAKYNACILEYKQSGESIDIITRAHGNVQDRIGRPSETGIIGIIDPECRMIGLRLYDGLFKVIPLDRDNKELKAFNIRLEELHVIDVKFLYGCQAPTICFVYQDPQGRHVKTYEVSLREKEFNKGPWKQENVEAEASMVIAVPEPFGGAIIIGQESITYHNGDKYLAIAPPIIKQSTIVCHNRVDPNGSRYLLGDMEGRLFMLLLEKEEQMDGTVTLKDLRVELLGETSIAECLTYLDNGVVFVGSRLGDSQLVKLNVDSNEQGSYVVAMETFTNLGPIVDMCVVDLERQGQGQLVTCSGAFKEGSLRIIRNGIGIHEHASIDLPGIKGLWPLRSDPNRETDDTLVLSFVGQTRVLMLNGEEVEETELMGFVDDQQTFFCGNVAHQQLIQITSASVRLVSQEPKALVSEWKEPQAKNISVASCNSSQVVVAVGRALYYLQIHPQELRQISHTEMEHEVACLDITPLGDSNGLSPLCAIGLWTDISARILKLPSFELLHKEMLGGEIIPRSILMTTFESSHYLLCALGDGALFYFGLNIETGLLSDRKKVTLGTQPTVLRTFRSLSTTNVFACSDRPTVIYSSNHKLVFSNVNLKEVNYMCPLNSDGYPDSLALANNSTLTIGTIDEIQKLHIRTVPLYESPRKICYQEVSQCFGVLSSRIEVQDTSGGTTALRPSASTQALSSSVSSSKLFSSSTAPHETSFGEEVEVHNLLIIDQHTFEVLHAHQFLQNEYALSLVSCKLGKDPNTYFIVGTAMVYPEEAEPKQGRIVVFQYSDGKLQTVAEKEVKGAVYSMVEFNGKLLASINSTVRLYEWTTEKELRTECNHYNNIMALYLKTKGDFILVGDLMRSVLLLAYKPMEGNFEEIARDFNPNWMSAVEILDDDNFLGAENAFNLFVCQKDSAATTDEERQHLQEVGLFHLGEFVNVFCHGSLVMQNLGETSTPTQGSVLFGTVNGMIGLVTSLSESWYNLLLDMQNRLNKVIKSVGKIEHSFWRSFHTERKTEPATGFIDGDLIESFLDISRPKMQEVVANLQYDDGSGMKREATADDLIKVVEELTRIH
T1 sequence (Q13422 whole entry Q146F, the tested form may be a part): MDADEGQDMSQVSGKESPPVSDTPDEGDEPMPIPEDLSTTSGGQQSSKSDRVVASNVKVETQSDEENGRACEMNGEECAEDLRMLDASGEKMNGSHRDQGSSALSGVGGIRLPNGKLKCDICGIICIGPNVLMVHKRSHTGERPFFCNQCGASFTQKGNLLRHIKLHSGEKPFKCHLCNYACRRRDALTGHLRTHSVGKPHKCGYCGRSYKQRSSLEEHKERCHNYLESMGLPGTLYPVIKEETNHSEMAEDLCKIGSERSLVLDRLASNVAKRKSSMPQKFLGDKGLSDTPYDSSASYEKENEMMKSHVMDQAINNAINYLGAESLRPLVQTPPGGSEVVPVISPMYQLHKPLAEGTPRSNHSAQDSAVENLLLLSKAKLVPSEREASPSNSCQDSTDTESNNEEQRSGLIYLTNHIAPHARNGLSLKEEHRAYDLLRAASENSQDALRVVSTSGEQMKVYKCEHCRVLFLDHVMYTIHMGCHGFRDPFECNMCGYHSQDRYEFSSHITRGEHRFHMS

In the case of `O=C1CCC(N2Cc3c(cc(F)c(CNC(=O)c4ccc5c(c4)CCC5)c3F)C2=O)C(=O)N1` (centres unmarked) [Compound 92, N-((2-(2,6-dioxopiperidin-3-yl)-4,6-difluoro-1-oxoisoindolin-5-yl)methyl)-2,3-dihydro-1H-indene-5-carboxamide], the DC50 is 9.16 nM in assay [1] (setting [2]) and at least 10000 nM on Helios. Also, the Dmax in assay [1] (setting [3]) was 63.2%.

For `O=C1CCC(N2Cc3c(cc(F)c(C(=O)N4CCc5cc(F)c(F)cc5C4)c3F)C2=O)C(=O)N1` (centres unmarked) [Compound 72, 3-[5-(6,7-difluoro-3,4-dihydro-1H-isoquinoline-2-carbonyl)-4,6-difluoro-1-oxo-isoindolin-2-yl]piperidine-2,6-dione], the DC50 in assay [1] (setting [2]) was 21.2 nM; on Helios, at least 10000 nM. The Dmax in assay [1] (setting [3]) came out at 92.5%.

As to `Cc1cc(Br)cnc1C(=O)N1CCC(c2c(F)cc3c(c2F)CN(C2CCC(=O)NC2=O)C3=O)CC1` (centres unmarked) [Compound 66, 3-(5-(1-(5-bromo-3-methylpicolinoyl)piperidin-4-yl)-4,6-difluoro-1-oxoisoindolin-2-yl) piperidine-2,6-dione], the results for the DC50 (in assay [1] (setting [2]); at Helios) were 46.1 nM and at least 10000 nM, respectively. Also, the Dmax in assay [1] (setting [3]) was 74.9%.

For the compound `Cc1nc(C)c(S(=O)(=O)N(C)CCN2CCC(O)(c3c(F)cc4c(c3F)CN(C3CCC(=O)NC3=O)C4=O)CC2)s1` (centres unmarked) [Compound 39, N-[2-[4-[2-(2,6-dioxo-3-piperidyl)-4,6-difluoro-1-oxo-isoindolin-5-yl]-4-hydroxy-1-piperidyl]ethyl]-N,2,4-trimethyl-thiazole-5-sulfonamide], the Dmax in assay [1] (setting [4]) was found to be 58.9%. In addition, the DC50 in assay [1] (read-out: Q1F Jurkat IC50; Jurkat cells expressing CD19 CAR tagged with IKZF1 ZNF2_ZNF3 Q1F; 18 hours at 37° C.; CAR levels normalized to untreated cells) was 93.8 nM; on Helios, at least 10000 nM.

On to `O=C1CCC(N2Cc3c(cc(F)c(C4CCN(Cc5ccc(C(F)(F)F)cc5)CC4)c3F)C2=O)C(=O)N1` (centres unmarked) [Compound 52, 3-(4,6-difluoro-1-oxo-5-(1-(4-(trifluoromethyl)benzyl)piperidin-4-yl)isoindolin-2-yl)piperidine-2,6-dione], for which the DC50 is 0.91 nM in assay [1] (setting [2]) and at least 10000 nM at Helios. Besides, in assay [1] (setting [3]), the Dmax was determined as 91.8%.

For the compound `Cc1cc(CN2CCC(c3c(F)cc4c(c3F)CN(C3CCC(=O)NC3=O)C4=O)CC2)on1` (centres unmarked) [Compound 4, 3-(4,6-difluoro-5-(1-((3-methylisoxazol-5-yl)methyl)piperidin-4-yl)-1-oxoisoindolin-2-yl)piperidine-2,6-dione], the values for the DC50 (in assay [1] (setting [2]); at Helios) were 105 nM and at least 10000 nM, respectively. For the same compound, in assay [1] (setting [3]), the Dmax amounted to 82.3%.

Consider `CN(CCN1CCC(O)(c2c(F)cc3c(c2F)CN(C2CCC(=O)NC2=O)C3=O)CC1)S(=O)(=O)c1ccccc1` (centres unmarked) [Compound 40, N-[2-[4-[2-(2,6-dioxo-3-piperidyl)-4,6-difluoro-1-oxo-isoindolin-5-yl]-4-hydroxy-1-piperidyl]ethyl]-N-methyl-benzenesulfonamide], for which the DC50 is 67.7 nM in assay [1] (setting [2]) and at least 10000 nM at Helios. Also, the Dmax in assay [1] (setting [3]) was 60%.

Turning to `O=C1CCC(N2Cc3c(cc(F)c(C4CCN(Cc5cccc(-n6cccn6)c5)CC4)c3F)C2=O)C(=O)N1` (centres unmarked) [Compound 49, 3-(5-(1-(3-(1H-pyrazol-1-yl)benzyl)piperidin-4-yl)-4,6-difluoro-1-oxoisoindolin-2-yl)piperidine-2,6-dione], the values for the DC50 (in assay [1] (setting [2]); at Helios) were 0.108 nM and at least 10000 nM, respectively. The Dmax in assay [1] (setting [3]) stood at 91%.

On to `Cc1cc(-c2cc3c(cc2F)C(=O)N(C2CCC(=O)NC2=O)C3)nc(N)c1C` (centres unmarked) [Compound 34, 3-(5-(6-amino-4,5-dimethylpyridin-2-yl)-6-fluoro-1-oxoisoindolin-2-yl) piperidine-2,6-dione], for which the results for the DC50 (in assay [1] (setting [2]); at Helios) were 7.43 nM and at least 10000 nM, respectively. Further, in assay [1] (setting [4]), the Dmax was 91.7%.

Take `O=C1CCC(N2Cc3cc(C4(O)CCN(Cc5ccc6ncsc6c5)CC4)c(F)cc3C2=O)C(=O)N1` (centres unmarked) [Compound 35, 3-(5-(1-(benzo[d]thiazol-6-ylmethyl)-4-hydroxypiperidin-4-yl)-6-fluoro-1-oxoisoindolin-2-yl) piperidine-2,6-dione]: the DC50 in assay [1] (setting [2]) is 144 nM; on Helios, at least 10000 nM. In addition, in assay [1] (setting [3]), the Dmax came out at 63.3%.

On to `O=C1CCC(N2Cc3c(cc(F)c(C4CCN(C5CCCCC5)CC4)c3F)C2=O)C(=O)N1` (centres unmarked) [Compound 97, 3-(5-(1-cyclohexylpiperidin-4-yl)-4,6-difluoro-1-oxoisoindolin-2-yl)piperidine-2,6-dione], for which the DC50 in assay [1] (setting [2]) was 3.88 nM; at Helios, at least 10000 nM. For the same compound, the Dmax in assay [1] (setting [3]) was 88.3%.

In the case of `COc1ccnc(CN2CCC(O)(c3c(F)cc4c(c3F)CN(C3CCC(=O)NC3=O)C4=O)CC2)c1` (centres unmarked) [Compound 25, 3-(4,6-difluoro-5-(4-hydroxy-1-((4-methoxypyridin-2-yl)methyl)piperidin-4-yl)-1-oxoisoindolin-2-yl)piperidine-2,6-dione], the DC50 in assay [1] (setting [2]) amounted to 48.2 nM. Moreover, the Dmax in assay [1] (setting [3]) came out at 67.4%.

In the case of `COc1ccc(-n2cccn2)c(CN2CCC(O)(c3c(F)cc4c(c3F)CN(C3CCC(=O)NC3=O)C4=O)CC2)c1` (centres unmarked) [Compound 23, 3-(4,6-difluoro-5-(4-hydroxy-1-(5-methoxy-2-(1H-pyrazol-1-yl)benzyl)piperidin-4-yl)-1-oxoisoindolin-2-yl)piperidine-2,6-dione], the DC50 in assay [1] (setting [2]) came out at 279 nM. In addition, the Dmax in assay [1] (setting [3]) was 51.6%.

For the compound `Cc1ccc(CN2CCC(O)(c3c(F)cc4c(c3F)CN(C3CCC(=O)NC3=O)C4=O)CC2)cc1` (centres unmarked) [Compound 27, 3-(4,6-difluoro-5-(4-hydroxy-1-(4-methylbenzyl)piperidin-4-yl)-1-oxoisoindolin-2-yl)piperidine-2,6-dione], the DC50 in assay [1] (setting [2]) was determined as 17.2 nM. In addition, the Dmax in assay [1] (setting [3]) stood at 76.2%.

Take `O=C1CCC(N2Cc3c(cc(F)c(C4(O)CCN(Cc5cc(F)c(C(F)(F)F)cc5F)CC4)c3F)C2=O)C(=O)N1` (centres unmarked) [Compound 21, 3-(5-(1-(2,5-difluoro-4-(trifluoromethyl)benzyl)-4-hydroxypiperidin-4-yl)-4,6-difluoro-1-oxoisoindolin-2-yl)piperidine-2,6-dione]: in assay [1] (setting [2]), the DC50 was determined as 40.2 nM. Besides, in assay [1] (setting [3]), the Dmax was determined as 70.7%.

Take `O=C1CCC(N2Cc3c(cc(F)c(C4(O)CCN(Cc5ccc(C(F)(F)F)cc5F)CC4)c3F)C2=O)C(=O)N1` (centres unmarked) [Compound 20, 3-(4,6-difluoro-5-(1-(2-fluoro-4-(trifluoromethyl)benzyl)-4-hydroxypiperidin-4-yl)-1-oxoisoindolin-2-yl)piperidine-2,6-dione]: in assay [1] (setting [2]), the DC50 turned out to be 33.3 nM. Further, in assay [1] (setting [3]), the Dmax is 77.1%.

Consider `O=C1CCC(N2Cc3c(cc(F)c(C4(O)CCN(Cc5ncccc5Br)CC4)c3F)C2=O)C(=O)N1` (centres unmarked) [Compound 24, 3-(5-(1-((3-bromopyridin-2-yl)methyl)-4-hydroxypiperidin-4-yl)-4,6-difluoro-1-oxoisoindolin-2-yl)piperidine-2,6-dione], for which the DC50 in assay [1] (setting [2]) came out at 101 nM. The Dmax in assay [1] (setting [3]) stood at 57.3%.

For the compound `CN(CCN1CCC(O)(c2c(F)cc3c(c2F)CN(C2CCC(=O)NC2=O)C3=O)CC1)Cc1ccccc1` (centres unmarked) [Compound 30, 3-(5-(1-(2-(benzyl(methyl)amino)ethyl)-4-hydroxypiperidin-4-yl)-4,6-difluoro-1-oxoisoindolin-2-yl)piperidine-2,6-dione], in assay [1] (setting [2]), the DC50 is 192 nM. Moreover, the Dmax in assay [1] (setting [3]) amounted to 57.8%.
